Experimental data as given in ChEMBL document CHEMBL5321293, “Discovery of ERD-3111 as a Potent and Orally Efficacious Estrogen Receptor PROTAC Degrader with Strong Antitumor Activity” (J Med Chem, 2023).
pIC50: −log10 of the molar value. The source made the active and inactive calls. The calls are words filed in the database; no cut-off is given here.

Key:
[1] = Drug concentration in tumor of CB17 SCID mouse xenografted with human MCF7 cells harboring wild type ESR1 at 10 mg/kg, po qd for 3 days and measured after 6 hrs last dose by LC-MS/MS analysis; assay type: ADME, organism-based, Neoplasm; settings: time 3 day, read-out: Ct
[2] = Drug concentration in tumor of CB17 SCID mouse xenografted with human MCF7 cells harboring wild type ESR1 at 30 mg/kg, po qd for 3 days and measured after 24 hrs last dose by LC-MS/MS analysis; assay type: ADME, organism-based, Neoplasm; settings: time 3 day, read-out: Ct
[3] = Half life in Sprague-Dawley rat at 3 mg/kg, po and measured upto 24 hrs by LC-MS/MS analysis; settings: in vivo
[4] = Drug concentration in tumor of CB17 SCID mouse xenografted with human MCF7 cells harboring wild type ESR1 at 30 mg/kg, po qd for 3 days and measured after 6 hrs last dose by LC-MS/MS analysis; assay type: ADME, organism-based, Neoplasm; settings: time 3 day, read-out: Ct
[5] = Cmax in Beagle dog at 1 mg/kg, po and measured upto 24 hrs by LC-MS/MS analysis; assay type: ADME, organism-based, Canis lupus familiaris; set-up: time < 24 hrs, dose 1 mg/kg, route po; settings: in vivo
[6] = Volume of distribution at steady state in ICR mouse at 1 mg/kg, iv and measured upto 24 hrs by LC-MS/MS analysis; assay type: ADME, organism-based; settings: in vivo, read-out: Vdss
[7] = Cmax in ICR mouse at 3 mg/kg, po and measured upto 24 hrs by LC-MS/MS analysis; assay type: ADME, organism-based; set-up: dose 3 mg/kg, time < 24 hrs, route po; settings: in vivo
[8] = Half life in ICR mouse at 3 mg/kg, po and measured upto 24 hrs by LC-MS/MS analysis; assay type: ADME, organism-based; settings: in vivo
[9] = Metabolic stability in human liver microsomes assessed as half life at 1 uM and measured upto 60 mins in presence of NADPH by LC-MS/MS analysis; assay type: ADME, Microsome
[10] = Volume of distribution at steady state in Beagle dog at 0.5 mg/kg, iv and measured upto 24 hrs by LC-MS/MS analysis; assay type: ADME, organism-based, Canis lupus familiaris; settings: in vivo, read-out: Vdss
[11] = AUC in Beagle dog at 1 mg/kg, po and measured upto 24 hrs by LC-MS/MS analysis; assay type: ADME, organism-based, Canis lupus familiaris; set-up: dose 1 mg/kg, time < 24 hrs, route po; settings: in vivo
[12] = Oral bioavailability in Beagle dog at 1 mg/kg and measured upto 24 hrs by LC-MS/MS analysis; assay type: ADME, organism-based, Canis lupus familiaris; settings: in vivo
[13] = Downregulation of ERalpha protein expression in tumor of CB17 SCID mouse xenografted with human MCF7 cells harboring wild type ESR1 at 10 mg/kg, po qd for 3 days and measured after 6 hrs last dose by Western blot analysis relative to control; assay type: functional; settings: time 3 day
MCF7 [14] = experiment: Antitumor activity against human MCF7 cells harboring ESR1 Y537S mutant xenografted in CB17 SCID mouse assessed as tumor growth inhibition at 10 mg/kg, po qd for 4 weeks and measured 30 days post last dose; assay type: functional; settings: MCF7, 672 h, read-out: TGI
MCF7 [15] = experiment: Antitumor activity against human MCF7 cells harboring ESR1 Y537S mutant xenografted in CB17 SCID mouse assessed as tumor growth inhibition at 10 mg/kg, po qd for 4 weeks; assay type: functional; settings: MCF7, 672 h, read-out: TGI
[16] = AUC in ICR mouse at 3 mg/kg, po and measured upto 24 hrs by LC-MS/MS analysis; assay type: ADME, organism-based; set-up: dose 3 mg/kg, time < 24 hrs, route po; settings: in vivo
[17] = Toxicity in CB17 SCID mouse xenografted with human MCF7 cells harboring ESR1 Y537S mutant assessed as body weight change at 10 mg/kg,po qd for 4 weeks; assay type: organism-based; settings: in vivo, 672 h
[18] = Drug concentration in tumor of CB17 SCID mouse xenografted with human MCF7 cells harboring ESR1 D538G mutant at 10 mg/kg, po qd for 3 days and measured after 6 hrs last dose by LC-MS/MS analysis; assay type: ADME, organism-based, Neoplasm; settings: time 3 day, read-out: Ct
[19] = Drug concentration in tumor of CB17 SCID mouse xenografted with human MCF7 cells harboring ESR1 Y537S mutant at 10 mg/kg, po qd for 3 days and measured after 6 hrs last dose by LC-MS/MS analysis; assay type: ADME, organism-based, Neoplasm; settings: time 3 day, read-out: Ct
[20] = Toxicity in CB17 SCID mouse xenografted with human MCF7 cells harboring ESR1 D538G mutant assessed as body weight change at 10 mg/kg,po qd for 4 weeks; assay type: organism-based; settings: in vivo, 672 h
[21] = Downregulation of ERalpha protein expression in tumor of CB17 SCID mouse xenografted with human MCF7 cells harboring wild type ESR1 at 30 mg/kg, po qd for 3 days and measured after 6 hrs last dose by Western blot analysis relative to control; assay type: functional; settings: time 3 day
Cytochrome P450 2C9 = Cytochrome P450 2C9 (Homo sapiens, UniProt P11712); experiment: Inhibition of CYP2C9 in human liver microsomes preincubated for 5 mins in presence substrate followed by NADPH addition and measured after 10 mins by LC-MS/MS analysis; assay type: ADME, Microsome
Chain of Cytochrome P450 2C9 (P11712 whole entry): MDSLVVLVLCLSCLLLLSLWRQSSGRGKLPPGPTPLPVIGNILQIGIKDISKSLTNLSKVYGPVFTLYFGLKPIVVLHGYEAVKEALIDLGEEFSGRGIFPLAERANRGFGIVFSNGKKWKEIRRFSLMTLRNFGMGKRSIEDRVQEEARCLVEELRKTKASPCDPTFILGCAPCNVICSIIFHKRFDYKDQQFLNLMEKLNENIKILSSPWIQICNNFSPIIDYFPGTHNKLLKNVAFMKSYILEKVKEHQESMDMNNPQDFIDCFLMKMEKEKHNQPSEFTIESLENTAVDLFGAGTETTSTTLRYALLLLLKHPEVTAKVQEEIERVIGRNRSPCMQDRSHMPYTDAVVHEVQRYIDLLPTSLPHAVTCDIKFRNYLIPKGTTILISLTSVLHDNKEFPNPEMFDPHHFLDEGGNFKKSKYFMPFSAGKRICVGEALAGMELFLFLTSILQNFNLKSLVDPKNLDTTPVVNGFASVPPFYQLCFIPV

[22] = Clearance in Beagle dog at 0.5 mg/kg, iv and measured upto 24 hrs by LC-MS/MS analysis; assay type: ADME, organism-based, Canis lupus familiaris; settings: in vivo
[23] = Toxicity in CB17 SCID mouse xenografted with human MCF7 cells harboring wild type ESR1 assessed as body weight change at 30 mg/kg,po qd for 5 weeks; assay type: organism-based; settings: in vivo, 840 h
[24] = molecular target: Protein cereblon/Estrogen receptor (Homo sapiens, UniProt P03372+Q96SW2); experiment: Protac activity at human ERalpha in human MCF7 cells assessed as induction of ERalpha degradation by measuring maximum efficacy at 1 uM incubated for 12 hrs by ICW blot assay relative to control; assay type: cell-based
Chain of Protein cereblon/Estrogen receptor (P03372 whole entry, looked up): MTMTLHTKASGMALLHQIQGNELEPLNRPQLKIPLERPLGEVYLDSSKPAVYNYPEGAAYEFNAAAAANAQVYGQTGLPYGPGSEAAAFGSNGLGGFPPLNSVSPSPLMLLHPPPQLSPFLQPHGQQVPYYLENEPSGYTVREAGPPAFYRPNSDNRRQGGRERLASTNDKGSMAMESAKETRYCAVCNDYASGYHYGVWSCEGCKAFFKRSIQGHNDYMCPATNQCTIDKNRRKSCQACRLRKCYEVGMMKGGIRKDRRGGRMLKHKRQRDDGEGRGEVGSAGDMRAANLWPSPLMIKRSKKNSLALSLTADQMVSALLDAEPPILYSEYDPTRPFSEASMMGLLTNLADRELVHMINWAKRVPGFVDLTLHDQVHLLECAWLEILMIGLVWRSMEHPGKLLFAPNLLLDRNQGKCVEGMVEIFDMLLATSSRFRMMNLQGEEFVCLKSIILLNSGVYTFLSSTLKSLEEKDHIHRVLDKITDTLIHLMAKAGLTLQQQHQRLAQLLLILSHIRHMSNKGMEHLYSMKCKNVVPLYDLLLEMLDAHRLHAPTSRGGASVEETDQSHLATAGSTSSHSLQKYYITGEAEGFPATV
Chain of Protein cereblon/Estrogen receptor (Q96SW2 whole entry, looked up): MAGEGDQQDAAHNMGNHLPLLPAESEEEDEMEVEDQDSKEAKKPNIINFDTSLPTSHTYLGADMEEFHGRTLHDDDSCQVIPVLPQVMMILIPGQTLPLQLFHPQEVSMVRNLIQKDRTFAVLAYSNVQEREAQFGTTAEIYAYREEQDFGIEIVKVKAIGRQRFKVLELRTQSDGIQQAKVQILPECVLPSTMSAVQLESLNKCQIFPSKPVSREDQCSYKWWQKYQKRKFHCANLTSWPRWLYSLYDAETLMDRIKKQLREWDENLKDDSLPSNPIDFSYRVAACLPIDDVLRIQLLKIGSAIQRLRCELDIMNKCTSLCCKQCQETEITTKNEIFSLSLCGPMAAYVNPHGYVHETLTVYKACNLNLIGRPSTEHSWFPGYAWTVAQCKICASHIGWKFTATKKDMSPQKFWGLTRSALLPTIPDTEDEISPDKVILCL

in vivo = settings: Sprague-Dawley, rat, po, 3 mg/kg
Cytochrome P450 3A4 = Cytochrome P450 3A4 (Homo sapiens, UniProt P08684); experiment: Inhibition of CYP3A4 in human liver microsomes using midazolam as substrate preincubated for 5 mins followed by NADPH addition and measured after 10 mins by LC-MS/MS analysis; assay type: ADME, Microsome
Chain of Cytochrome P450 3A4 (P08684 whole entry): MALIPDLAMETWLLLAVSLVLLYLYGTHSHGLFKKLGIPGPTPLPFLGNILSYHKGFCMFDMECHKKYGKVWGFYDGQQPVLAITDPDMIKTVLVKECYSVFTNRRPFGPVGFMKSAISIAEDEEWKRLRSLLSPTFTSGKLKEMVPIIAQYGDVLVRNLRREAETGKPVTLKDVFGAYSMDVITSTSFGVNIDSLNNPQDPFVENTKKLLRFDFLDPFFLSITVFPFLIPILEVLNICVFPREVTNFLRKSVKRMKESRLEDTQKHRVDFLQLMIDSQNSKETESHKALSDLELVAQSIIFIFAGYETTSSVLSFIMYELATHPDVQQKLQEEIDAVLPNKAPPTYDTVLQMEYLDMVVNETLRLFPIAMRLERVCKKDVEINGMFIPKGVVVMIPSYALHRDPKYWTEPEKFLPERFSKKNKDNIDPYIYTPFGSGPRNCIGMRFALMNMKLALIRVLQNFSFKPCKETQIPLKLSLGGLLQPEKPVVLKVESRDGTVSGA

[25] = Drug concentration in plasma of CB17 SCID mouse xenografted with human MCF7 cells harboring wild type ESR1 at 30 mg/kg, po qd for 3 days and measured after 3 hrs last dose by LC-MS/MS analysis; assay type: ADME, organism-based; settings: time 3 day
MCF7 [26] = experiment: Antitumor activity against human MCF7 cells harboring ESR1 D538G mutant xenografted in CB17 SCID mouse assessed as tumor growth inhibition at 10 mg/kg, po qd for 4 weeks and measured 1 week post last dose; assay type: functional, organism-based
[27] = Toxicity in CB17 SCID mouse xenografted with human MCF7 cells harboring ESR1 Y537S mutant assessed as body weight change at 30 mg/kg,po qd for 4 weeks; assay type: organism-based; settings: in vivo, 672 h
[28] = Downregulation of ERalpha protein expression in tumor of CB17 SCID mouse xenografted with human MCF7 cells harboring wild type ESR1 at 30 mg/kg, po qd for 3 days and measured after 3 hrs last dose by Western blot analysis relative to control; assay type: functional; settings: time 3 day
[29] = Clearance in Sprague-Dawley rat at 1 mg/kg, iv and measured upto 24 hrs by LC-MS/MS analysis; settings: in vivo

C[C@@H]1Cc2c(ccc3[nH]ncc23)[C@@H](c2c(F)cc(N3CCC4(CCN(C(=O)CN5Cc6cc7c(cc6C5)C(=O)N(C5CCC(=O)NC5=O)C7=O)CC4)CC3)cc2F)N1CC(F)F (some centres not stated)
concentration at 72 h [1]: 385 ng/mL
concentration at 72 h [2]: 413 ng/mL
half-life at 24 h [3]: 4 h
concentration at 72 h [4]: 1470 ng/mL
Cmax [5]: 87 ng/mL
Vd [6]: 3.2 L/kg
Cmax [7]: 260 ng/mL
half-life [8]: 6.4 h
half-life at 1 µM [9]: > 1 h
Vd [10]: 5.2 L/kg
AUC at 24 h [11]: 937 ng·h/mL
bioavailability [12]: 66%
Activity [13]: 66%
inhibition in vivo at 10 mg/kg (MCF7 [14]): 99%
inhibition in vivo at 10 mg/kg (MCF7 [15]): 72%
AUC at 24 h [16]: 3370 ng·h/mL
Activity [17]: Non-Toxic
concentration at 72 h [18]: 1050 ng/mL
concentration at 72 h [19]: 692 ng/mL
Activity [20]: Non-Toxic
Activity [21]: 66%
pIC50 (Cytochrome P450 2C9): < 5.00
clearance [22]: 11 mL/min/kg
Activity [23]: Non-Toxic
Emax [24]: 91%
Cmax at 24 h (in vivo): 141 ng/mL
pIC50 (Cytochrome P450 3A4): < 5.00
concentration at 72 h [25]: 1980 ng/mL
Activity (MCF7 [26]): Active
Activity [27]: Non-Toxic
Activity [28]: 82%
clearance at 24 h [29]: 7.4 mL/min/kg
